From US20020137929A1, “1 - (3-heterocyclylphenyl) isothiourea, -isourea, -guanidine and -amidine herbicidal agents” (Intellectual Property Department, BASF Aktiengesellschaft, priority 1998, published 2002)

Assays:
CYPIR (Rice Flatsedge) = assay: Preemergence weed control under flooded paddy conditions; format: in vivo, Cyperus iria; details: rated 3-4 weeks after treatment
Procedure, shortened: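 Seeds or propagules sown in top 0.5 cm of silt loam soil, flooded 1.5 to 3 cm above surface throughout. Compound in 50/50 v/v aqueous/acetone pipetted into flood water at about 0.0313 to 0.500 kg/ha. Visual 0-9 rating versus control after three to four weeks in greenhouse.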

[1] = system: CHEAL (Lambsquarters, Common); assay: Postemergence herbicidal evaluation; format: in vivo, Chenopodium album; details: postemergence
Procedure, shortened: (§1)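 Two-week seedlings sprayed postemergence at 40 psi; formulation: 1:1 acetone/water, 0.5% TWEEN 20; application ≈0.0156–0.500 kg/ha. Greenhouse grow-out, then 0–9 visual scoring at 4–5 weeks.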

CYPSE (Flatsedge) = assay: Preemergence weed control under flooded paddy conditions; format: in vivo, Cyperus serotinus; details: rated 3-4 weeks after treatment
Procedure, shortened: (§2)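 Ratings on a 0-9 visual scale cover stand, vigor, malformation, size, chlorosis and overall appearance relative to a control, taken three to four weeks post-treatment. Application was into flood water over freshly sown silt loam at roughly 0.0313 to 0.500 kg/ha.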

GALAP (Galium) [2] = assay: Postemergence herbicidal evaluation; format: in vivo, Galium aparine; details: postemergence
Procedure, shortened: as §1

CASOB (Sicklepod) [3] = assay: Preemergence herbicidal evaluation; format: in vivo, Cassia obtusifolia; details: rated 4-5 weeks after treatment, rating scale 0-9
Procedure, shortened: (§3)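 In this greenhouse assay, monocot and dicot seeds are planted in soil and treated prior to emergence with an aqueous acetone spray (about 0.0156-0.500 kg/ha). Plants are assessed visually against control on a 0-9 scale after 4-5 weeks.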

GALAP (Galium) [4] = assay: Preemergence herbicidal evaluation; format: in vivo, Galium aparine; details: rated 4-5 weeks after treatment, rating scale 0-9
Procedure, shortened: as §3

ZEAMX (Corn, Field) = assay: Preemergence herbicidal evaluation; format: in vivo, Zea mays; details: rated 4-5 weeks after treatment, rating scale 0-9
Procedure, shortened: as §3

[5] = system: SAGPY (Arrowhead (Pygmaea)); assay: Preemergence weed control under flooded paddy conditions; format: in vivo, Sagittaria pygmaea; details: rated 3-4 weeks after treatment
Procedure, shortened: as §2

CASOB (Sicklepod) [6] = assay: Postemergence herbicidal evaluation; format: in vivo, Cassia obtusifolia; details: postemergence
Procedure, shortened: as §1

ECHCG (Barnyardgrass) = assay: Postemergence herbicidal evaluation; format: in vivo, Echinochloa crus-galli; details: postemergence
Procedure, shortened: as §1

AMBEL (Ragweed, Common) = assay: Postemergence herbicidal evaluation; format: in vivo, Ambrosia artemisifolia; details: postemergence
Procedure, shortened: as §1

SETVI (Foxtail, Green) = assay: Postemergence herbicidal evaluation; format: in vivo, Setaria viridis; details: postemergence
Procedure, shortened: as §1

ORYSAT (Rice, Tebonnet) = assay: Postemergence herbicidal evaluation; format: in vivo, Oryza sativa, (L.) Tebonnet; details: postemergence
Procedure, shortened: as §1

[7] = system: GLXMAW (Soybean, Williams); assay: Postemergence herbicidal evaluation; format: in vivo, Glycine max, (L.) Merr. cv Williams; details: postemergence
Procedure, shortened: as §1

Cc1cc(C)cc(CN2C(=O)CSC2=Nc2cc(-n3c(=O)cc(C(F)(F)F)n(C)c3=O)c(F)cc2Cl)c1 [Compound 146, 3-{4-Chloro-5-{[3-(3,5-dimethylbenzyl)-4-oxo-2-thiazolidinylidene]amino}-2-fluorophenyl}-1-methyl-6-(trifluoromethyl)-2,4(1H,3H)-pyrimidinedione]
herbicidal effect rating, CYPIR (CYPIR (Rice Flatsedge); 0.0313 kg/ha): 4.0
herbicidal effect rating, CYPIR (CYPIR (Rice Flatsedge); 0.0625 kg/ha): 6.0
herbicidal effect rating, CYPIR (CYPIR (Rice Flatsedge); 0.1250 kg/ha): 6.0
herbicidal effect rating, CYPIR (CYPIR (Rice Flatsedge); 0.2500 kg/ha): 7.0
Herbicidal rating CHEAL ([1]; rate 0.0156 kg/ha): 9.0
Herbicidal rating CHEAL ([1]; rate 0.0313 kg/ha): 9.0
Herbicidal rating CHEAL ([1]; rate 0.0625 kg/ha): 9.0
herbicidal effect rating, CYPSE (CYPSE (Flatsedge); 0.0313 kg/ha): 0.0
herbicidal effect rating, CYPSE (CYPSE (Flatsedge); 0.0625 kg/ha): 0.0
herbicidal effect rating, CYPSE (CYPSE (Flatsedge); 0.1250 kg/ha): 0.0
herbicidal effect rating, CYPSE (CYPSE (Flatsedge); 0.2500 kg/ha): 0.0
Herbicidal rating GALAP (GALAP (Galium) [2]; rate 0.0156 kg/ha): 2.0
Herbicidal rating GALAP (GALAP (Galium) [2]; rate 0.0313 kg/ha): 2.0
Herbicidal rating GALAP (GALAP (Galium) [2]; rate 0.0625 kg/ha): 4.0
Preemergence herbicidal rating CASOB (CASOB (Sicklepod) [3]; rate 0.0156 kg/ha): 0.0
Preemergence herbicidal rating CASOB (CASOB (Sicklepod) [3]; rate 0.0313 kg/ha): 0.0
Preemergence herbicidal rating CASOB (CASOB (Sicklepod) [3]; rate 0.0625 kg/ha): 0.0
Preemergence herbicidal rating CASOB (CASOB (Sicklepod) [3]; rate 0.1250 kg/ha): 1.0
Preemergence herbicidal rating CASOB (CASOB (Sicklepod) [3]; rate 0.2500 kg/ha): 1.0
Preemergence herbicidal rating GALAP (GALAP (Galium) [4]; rate 0.0156 kg/ha): 1.0
Preemergence herbicidal rating GALAP (GALAP (Galium) [4]; rate 0.0313 kg/ha): 0.0
Preemergence herbicidal rating GALAP (GALAP (Galium) [4]; rate 0.0625 kg/ha): 0.0
Preemergence herbicidal rating GALAP (GALAP (Galium) [4]; rate 0.1250 kg/ha): 2.0
Preemergence herbicidal rating GALAP (GALAP (Galium) [4]; rate 0.2500 kg/ha): 2.0
Preemergence herbicidal rating ZEAMX (ZEAMX (Corn, Field); rate 0.0156 kg/ha): 0.0
Preemergence herbicidal rating ZEAMX (ZEAMX (Corn, Field); rate 0.0313 kg/ha): 0.0
Preemergence herbicidal rating ZEAMX (ZEAMX (Corn, Field); rate 0.0625 kg/ha): 0.0
Preemergence herbicidal rating ZEAMX (ZEAMX (Corn, Field); rate 0.1250 kg/ha): 0.0
Preemergence herbicidal rating ZEAMX (ZEAMX (Corn, Field); rate 0.2500 kg/ha): 0.0
herbicidal effect rating, SAGPY ([5]; 0.0313 kg/ha): 0.0
herbicidal effect rating, SAGPY ([5]; 0.0625 kg/ha): 0.0
herbicidal effect rating, SAGPY ([5]; 0.1250 kg/ha): 3.0
herbicidal effect rating, SAGPY ([5]; 0.2500 kg/ha): 4.0
Herbicidal rating CASOB (CASOB (Sicklepod) [6]; rate 0.0156 kg/ha): 1.0
Herbicidal rating CASOB (CASOB (Sicklepod) [6]; rate 0.0313 kg/ha): 2.0
Herbicidal rating CASOB (CASOB (Sicklepod) [6]; rate 0.0625 kg/ha): 4.0
Herbicidal rating ECHCG (ECHCG (Barnyardgrass); rate 0.0156 kg/ha): 1.0
Herbicidal rating ECHCG (ECHCG (Barnyardgrass); rate 0.0313 kg/ha): 1.0
Herbicidal rating ECHCG (ECHCG (Barnyardgrass); rate 0.0625 kg/ha): 2.0
Herbicidal rating AMBEL (AMBEL (Ragweed, Common); rate 0.0156 kg/ha): 9.0
Herbicidal rating AMBEL (AMBEL (Ragweed, Common); rate 0.0313 kg/ha): 9.0
Herbicidal rating AMBEL (AMBEL (Ragweed, Common); rate 0.0625 kg/ha): 9.0
Herbicidal rating SETVI (SETVI (Foxtail, Green); rate 0.0156 kg/ha): 1.0
Herbicidal rating SETVI (SETVI (Foxtail, Green); rate 0.0313 kg/ha): 2.0
Herbicidal rating SETVI (SETVI (Foxtail, Green); rate 0.0625 kg/ha): 3.0
Herbicidal rating ORYSAT (ORYSAT (Rice, Tebonnet); rate 0.0156 kg/ha): 2.0
Herbicidal rating ORYSAT (ORYSAT (Rice, Tebonnet); rate 0.0313 kg/ha): 3.5
Herbicidal rating ORYSAT (ORYSAT (Rice, Tebonnet); rate 0.0625 kg/ha): 4.0
Herbicidal rating GLXMAW ([7]; rate 0.0156 kg/ha): 5.0
Herbicidal rating GLXMAW ([7]; rate 0.0313 kg/ha): 6.0
Herbicidal rating GLXMAW ([7]; rate 0.0625 kg/ha): 6.0

Cc1ccc(CN2C(=O)CSC2=Nc2cc(-n3c(=O)cc(C(F)(F)F)n(C)c3=O)c(F)cc2Cl)cc1Cl [Compound 149, 3-{4-Chloro-5-{[3-(3-chloro-4-methylbenzyl)-4-oxo-2-thiazolidinylidene]amino}-2-fluorophenyl}-1-methyl-6-(trifluoromethyl)-2,4(1H,3H)-pyrimidinedione]
herbicidal effect rating, CYPIR (CYPIR (Rice Flatsedge); 0.0313 kg/ha): 3.0
herbicidal effect rating, CYPIR (CYPIR (Rice Flatsedge); 0.0625 kg/ha): 4.0
herbicidal effect rating, CYPIR (CYPIR (Rice Flatsedge); 0.1250 kg/ha): 7.0
herbicidal effect rating, CYPIR (CYPIR (Rice Flatsedge); 0.2500 kg/ha): 4.0
Herbicidal rating CHEAL ([1]; rate 0.0156 kg/ha): 3.0
Herbicidal rating CHEAL ([1]; rate 0.0313 kg/ha): 3.0
Herbicidal rating CHEAL ([1]; rate 0.0625 kg/ha): 4.0
herbicidal effect rating, CYPSE (CYPSE (Flatsedge); 0.0313 kg/ha): 0.0
herbicidal effect rating, CYPSE (CYPSE (Flatsedge); 0.0625 kg/ha): 0.0
herbicidal effect rating, CYPSE (CYPSE (Flatsedge); 0.1250 kg/ha): 0.0
herbicidal effect rating, CYPSE (CYPSE (Flatsedge); 0.2500 kg/ha): 0.0
Herbicidal rating GALAP (GALAP (Galium) [2]; rate 0.0156 kg/ha): 0.0
Herbicidal rating GALAP (GALAP (Galium) [2]; rate 0.0313 kg/ha): 0.0
Herbicidal rating GALAP (GALAP (Galium) [2]; rate 0.0625 kg/ha): 2.0
Preemergence herbicidal rating CASOB (CASOB (Sicklepod) [3]; rate 0.1250 kg/ha): 0.0
Preemergence herbicidal rating CASOB (CASOB (Sicklepod) [3]; rate 0.2500 kg/ha): 0.0
Preemergence herbicidal rating GALAP (GALAP (Galium) [4]; rate 0.1250 kg/ha): 0.0
Preemergence herbicidal rating GALAP (GALAP (Galium) [4]; rate 0.2500 kg/ha): 0.0
Preemergence herbicidal rating ZEAMX (ZEAMX (Corn, Field); rate 0.1250 kg/ha): 0.0
Preemergence herbicidal rating ZEAMX (ZEAMX (Corn, Field); rate 0.2500 kg/ha): 2.0
herbicidal effect rating, SAGPY ([5]; 0.0313 kg/ha): 0.0
herbicidal effect rating, SAGPY ([5]; 0.0625 kg/ha): 2.0
herbicidal effect rating, SAGPY ([5]; 0.1250 kg/ha): 3.0
herbicidal effect rating, SAGPY ([5]; 0.2500 kg/ha): 3.0
Herbicidal rating CASOB (CASOB (Sicklepod) [6]; rate 0.0156 kg/ha): 0.0
Herbicidal rating CASOB (CASOB (Sicklepod) [6]; rate 0.0313 kg/ha): 0.0
Herbicidal rating CASOB (CASOB (Sicklepod) [6]; rate 0.0625 kg/ha): 0.0
Herbicidal rating ECHCG (ECHCG (Barnyardgrass); rate 0.0156 kg/ha): 0.0
Herbicidal rating ECHCG (ECHCG (Barnyardgrass); rate 0.0313 kg/ha): 0.0
Herbicidal rating ECHCG (ECHCG (Barnyardgrass); rate 0.0625 kg/ha): 0.0
Herbicidal rating AMBEL (AMBEL (Ragweed, Common); rate 0.0156 kg/ha): 4.0
Herbicidal rating AMBEL (AMBEL (Ragweed, Common); rate 0.0313 kg/ha): 9.0
Herbicidal rating AMBEL (AMBEL (Ragweed, Common); rate 0.0625 kg/ha): 9.0
Herbicidal rating SETVI (SETVI (Foxtail, Green); rate 0.0156 kg/ha): 0.0
Herbicidal rating SETVI (SETVI (Foxtail, Green); rate 0.0313 kg/ha): 0.0
Herbicidal rating SETVI (SETVI (Foxtail, Green); rate 0.0625 kg/ha): 0.0
Herbicidal rating ORYSAT (ORYSAT (Rice, Tebonnet); rate 0.0156 kg/ha): 0.5
Herbicidal rating ORYSAT (ORYSAT (Rice, Tebonnet); rate 0.0313 kg/ha): 1.0
Herbicidal rating ORYSAT (ORYSAT (Rice, Tebonnet); rate 0.0625 kg/ha): 1.0
Herbicidal rating GLXMAW ([7]; rate 0.0156 kg/ha): 4.0
Herbicidal rating GLXMAW ([7]; rate 0.0313 kg/ha): 4.5
Herbicidal rating GLXMAW ([7]; rate 0.0625 kg/ha): 4.5
